Several values for one entry are separate records, joined by “and”; a condition that tells them apart may be missing. Equal values may be shown once.
Columns and labels:
Giant foxtail (GIFT) [1] = assay: whole plant or invertebrate; assay type: in vivo; conditions: for inhibition at 140 g/ha: Setaria faberi, iv, 312 h
Velvetleaf (VELE) [2] = assay: Multi-crop greenhouse test, soil-applied (Examples 65, 66; Tables 64, 65); assay type: in vivo, Abutilon theophrasti; set-up: inhibition: dose or concentration left out as unconfirmed; conditions: Abutilon theophrasti; for inhibition at 18 g/ha: Herb. No. 1 0.018 Kg/Ha alone; for inhibition at 70 g/ha: Herb. No. 1 0.07 Kg/Ha alone; for inhibition at 280 g/ha: Herb. No. 1 0.28 Kg/Ha alone
Method: Tests according to this invention in various crops indicate widespread application of the invention. In Examples 62-66 below are described tests with a variety of herbicides contacted with COUNTER® 15G in the presence and absence of MON-7400 (Antidote No. 12); MON-13900 (No. 1); MON-4660 (No. 16) and flurazole (No. 16). Those tests were conducted according to Procedures IV or V described above and illustrated further in other foregoing examples. Plants used in all tests were, for crops (as abbreviated in parentheses); cotton (COTT); soybean (SOBE); CORN, grain sorghum (GRSO); wheat (WHEA) and RICE, and the weeds giant foxtail (GIFT) and velvetleaf (VELE). The data in the tables below represent averages of two replications.
In this test the crops and weeds were planted 1.3 cm deep in 13.7 cm X 27.7 cm pans containing Dupo silt loam soil. The test safeners were applied in acetone solution and COUNTER 15G as dry granules to soil cover layers and incorporated by shaking in a bag. Treated cover layers were placed on seeded pans which were transferred to greenhouse benches and subirrigated. Herbicide was applied POE six (6) days after PPI initiation and observations of plant injury made ten (10) days later; results are shown in Table 61. The herbicide used in this example was BEACON (No. 8).
In another test in the several crops and weeds used in this test series, the herbicidal component was MON-12000 (No. 1); the other components were the same. the procedure used in this test was the same as that described in Example 62, modified to use a light overhead irrigation (about 0.32 cm/day) during days 4-7 of the test. Table 64 […]

Velvetleaf (VELE) [3] = assay: Greenhouse test Procedure VI (Examples 59-61; Tables 58-60); assay type: in vivo, Abutilon theophrasti; conditions: Antidote + Biocide No. 1 in furrow
Source text: (§1) This procedure describes interaction among herbicide, biocide and antidote when the herbicide is incorporated in a soil cover layer and the biocide and the antidote are applied in a soil furrow containing crop seed before emergence of the crop. The soil and seeding depth were described in Procedure IV. A first container was designated as an untreated control, a second container was designated as a herbicide control, a third container was designated as a herbicide + biocide control and a fourth container as a herbicide + biocide + antidote test container. The biocide and antidote were formulated as granules. The biocide was applied to the soil furrows of the third and fourth containers at an application rate of 1.1 mg of active compound per cm of row. The antidote was applied to the soil furrow of the fourth container at an application rate of 0.37 mg of active compound per cm of row. A measured amount of the herbicide dispersed or dissolved in acetone was applied to a measured quantity of soil. The quantity of soil treated with the herbicide was thoroughly mixed to incorporate the herbicide. Samples of this soil were used to cover the seed beds of the second, third and fourth containers. For each test series, the seed bed of the first container was likewise covered by a soil layer not treated with herbicide and without biocide or antidote in the soil furrow.
(§2) The containers were then placed on a bench in a greenhouse. Watering was by subirrigation plus overhead irrigation after the plants emerged. All treatments were run in duplicate. Plant response was observed according to Procedure IV. Variations in this procedure will be noted in the examples.
(§3) The procedure used in this example involved the PPI application of biocide and safener as described in general Procedure VI above. The "primary" herbicide in this test was MON-12000 (Herbi-cide No. 1) in admixture with other herbicides designated as "co-herbicides", which included LASSO® (co-herbicide B); DUAL® (C); acetochlor (A); EPTAM® (D); butylate (E) and PURSUIT® (K).
(§4) The in-furrow treatments with blended COUNTER 15G and antidote mixtures was as described in above examples. MON-12000 and the co-herbicides were formulated in acetone and applied as tank mixtures, incorporated into Dupo silt loam soil with a rotary drum mixer. Subsamples were used to cover seeded and in-furrow treated 10.2 cm pots. Pots were placed on greenhouse benches and subirrigated. Plant responses were observed thirteen days after PPI initiation. Test results (average of two replications) are shown in Table 58, wherein giant foxtail (GIFT) was used in place of shattercane.
(§5) This test was conducted in the same manner used in Example 59. All biocide and antidote components were the same and in these tests XRD-498 (Herbicide No. 21) was the prime herbicide. Co-herbicides are shown in Table 59 together with test data.
(§6) In one other test conducted as described in the preceding examples in this series of tests, the herbicide PURSUIT® was used as the primary herbicide (in the context of this invention) together with the same insecticide and safeners as above and the co-herbicides shown in Table 60, together with test results.

Giant foxtail (GIFT) [4] = assay: as above; assay type: in vivo; conditions: Antidote + Biocide No. 1 in furrow
Source text: as §1, §2, §3, §4, §5, §6

[5] = Herbicide No. 11 0.0044 Kg/Ha PPI
[6] = Herbicide No. 12 0.0044 Kg/Ha PPI
[7] = Herbicide No. 13 0.0011 Kg/Ha PPI
[8] = Herbicide No. 13 0.0022 Kg/Ha PPI
[9] = Herbicide No. 14 0.07 Kg/Ha PPI
[10] = Herbicide No. 16 0.07 Kg/Ha PPI, 13 days
[11] = Herbicide No. 17 0.14 Kg/Ha PPI, 13 days
[12] = Herbicide No. 18 0.04 Kg/Ha PPI, 13 days
[13] = Herbicide No. 20 1.12 Kg/Ha PPI, 13 days
[14] = Herbicide No. 22 0.28 Kg/Ha PPI, 13 days
[15] = Herbicide No. 24 0.14 Kg/Ha PPI, 13 days
[16] = Herbicide No. 25 0.14 Kg/Ha PPI, 13 days
[17] = Herbicide No. 26 2.24 Kg/Ha PPI, 13 days
[18] = Herbicide No. 28 0.04 Kg/Ha PPI, 13 days

Compound: COC(=O)c1c(Cl)nn(C)c1S(=O)(=O)NC(=O)Nc1nc(OC)cc(OC)n1 [Herbicide No. 1, N-[(4,6-dimethoxypyrimidin-2-yl)aminocarbonyl]-3-chloro-4-methoxycarbonyl-5-sulfonamide, reference compound]
- % Inhibition GIFT (Giant foxtail (GIFT) [1]; Herbicide No. 1 0.0175 Kg/Ha PPI alone, Table 19): 15%
- % Inhibition GIFT (Giant foxtail (GIFT) [1]; Herbicide No. 1 0.0175 Kg/Ha PPI alone, Table 20): 0%
- % Inhibition GIFT (Giant foxtail (GIFT) [1]; Herbicide No. 1 0.0175 Kg/Ha PPI alone, Table 21): 0%
- % Inhibition GIFT (Giant foxtail (GIFT) [1]; Herbicide No. 1 0.0175 Kg/Ha PPI alone, Table 22): 0%
- inhibition at 140 g/ha (Giant foxtail (GIFT) [1]; Herb. No. 1 0.14 kg/Ha alone, PPI, 13 days after planting): 30%
- inhibition at 140 g/ha (Giant foxtail (GIFT) [1]; Table 51, Herbicide No. 1 0.14 Kg/Ha, where applied Biocide No. 8 8.96 kg/Ha and antidote 4.48 Kg/Ha, all PPI, observed 13 days after treatment): 60%
- % Inhibition GIFT (Giant foxtail (GIFT) [1]; in vivo): 60% and 65% and 80%
- inhibition (Velvetleaf (VELE) [2]; Table 64, Herb. No. 1 0.018 Kg/Ha + Biocide No. 1 8.96 Kg/Ha): 75%
- inhibition at 18 g/ha (Velvetleaf (VELE) [2]; Table 64): 70%
- inhibition (Velvetleaf (VELE) [2]; Table 64, Herb. No. 1 0.07 Kg/Ha + Biocide No. 1 8.96 Kg/Ha): 85%
- inhibition at 70 g/ha (Velvetleaf (VELE) [2]; Table 64): 90%
- inhibition (Velvetleaf (VELE) [2]; Table 64, Herb. No. 1 0.28 Kg/Ha + Biocide No. 1 8.96 Kg/Ha): 100%
- inhibition at 280 g/ha (Velvetleaf (VELE) [2]; Table 64): 100%
- inhibition (Velvetleaf (VELE) [2]; Table 65, Herb. No. 1 0.018 Kg/Ha + Biocide No. 1 8.96 Kg/Ha): 10%
- inhibition at 18 g/ha (Velvetleaf (VELE) [2]; Table 65): 15%
- inhibition (Velvetleaf (VELE) [2]; Table 65, Herb. No. 1 0.07 Kg/Ha + Biocide No. 1 8.96 Kg/Ha): 80%
- inhibition at 70 g/ha (Velvetleaf (VELE) [2]; Table 65): 80%
- inhibition (Velvetleaf (VELE) [2]; Table 65, Herb. No. 1 0.28 Kg/Ha + Biocide No. 1 8.96 Kg/Ha): 90%
- inhibition at 280 g/ha (Velvetleaf (VELE) [2]; Table 65): 90%

Compound: N#CCOc1ccc(Cl)c2cccnc12 [compound 33]
- % Inhibition VELE (Velvetleaf (VELE) [3]; Herbicide No. 6 0.14 Kg/Ha PPI): 70%
- % Inhibition VELE (Velvetleaf (VELE) [3]; [5]): 65%
- % Inhibition VELE (Velvetleaf (VELE) [3]; [6]): 60%
- % Inhibition VELE (Velvetleaf (VELE) [3]; [7]): 20%
- % Inhibition VELE (Velvetleaf (VELE) [3]; [8]): 50%
- % Inhibition VELE (Velvetleaf (VELE) [3]; [9]): 85%
- % Inhibition VELE (Velvetleaf (VELE) [3]; [10]): 65%
- % Inhibition VELE (Velvetleaf (VELE) [3]; [11]): 75%
- % Inhibition VELE (Velvetleaf (VELE) [3]; [12]): 40%
- % Inhibition VELE (Velvetleaf (VELE) [3]; [13]): 90%
- % Inhibition VELE (Velvetleaf (VELE) [3]; [14]): 90%
- % Inhibition VELE (Velvetleaf (VELE) [3]; [15]): 95%
- % Inhibition VELE (Velvetleaf (VELE) [3]; [16]): 70%
- % Inhibition VELE (Velvetleaf (VELE) [3]; [17]): 50%
- % Inhibition VELE (Velvetleaf (VELE) [3]; [18]): 80%
- % Inhibition GIFT (Giant foxtail (GIFT) [4]; Herbicide No. 6 0.14 Kg/Ha PPI): 70%
- % Inhibition GIFT (Giant foxtail (GIFT) [4]; [5]): 0%
- % Inhibition GIFT (Giant foxtail (GIFT) [4]; [6]): 0%
- % Inhibition GIFT (Giant foxtail (GIFT) [4]; [7]): 10%
- % Inhibition GIFT (Giant foxtail (GIFT) [4]; [8]): 35%
- % Inhibition GIFT (Giant foxtail (GIFT) [4]; [9]): 0%
- % Inhibition GIFT (Giant foxtail (GIFT) [4]; [10]): 45%
- % Inhibition GIFT (Giant foxtail (GIFT) [4]; [11]): 80%
- % Inhibition GIFT (Giant foxtail (GIFT) [4]; [12]): 45%
- % Inhibition GIFT (Giant foxtail (GIFT) [4]; [13]): 30%
- % Inhibition GIFT (Giant foxtail (GIFT) [4]; [14]): 15%
- % Inhibition GIFT (Giant foxtail (GIFT) [4]; [15]): 25%
- % Inhibition GIFT (Giant foxtail (GIFT) [4]; [16]): 25%
- % Inhibition GIFT (Giant foxtail (GIFT) [4]; [17]): 15%
- % Inhibition GIFT (Giant foxtail (GIFT) [4]; [18]): 40%

— patent EP0565593B1, “REDUCING PESTICIDAL INTERACTIONS IN CROPS” (priority 1990, dated 1992)
